Assay results reported in the supplement of paper PMC10307832.

Legend:
Assay in all cases: relative viability (nuclei count vs DMSO), 5 days (fraction); higher = more cells survive
[1] = system: HCC-44
In short: (§1)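 Lung cancer cell lines, seeded in 1536-well plates, were treated the following day by pin tool with a single drug or with five library-drug doses (not always all listed) in √10 steps on top of a fixed anchor-drug dose. Cells were fixed and nuclei stained in one step after 5 days, and nuclei were counted. Relative viability is the nuclei count for treated wells divided by that for vehicle wells, reported as medians of duplicate plates.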

[2] = system: PC-3 [JPC-3]
In short: as §1

[3] = system: NCI-H2085
In short: as §1

[4] = system: SW 1573
In short: as §1

[5] = system: BEN
In short: as §1

[6] = system: LCLC-97TM1
In short: as §1

[7] = system: EPLC-272H
In short: as §1

[8] = system: NCI-H2087
In short: as §1

[9] = system: H3255
In short: as §1

[10] = system: NCI-H1437
In short: as §1

[11] = system: NCI-H647
In short: as §1

[12] = system: NCI-H1666
In short: as §1

[13] = system: LOU-NH91
In short: as §1

[14] = system: HOP-62
In short: as §1

[15] = system: HCC-827
In short: as §1

[16] = system: COR-L 105
In short: as §1

[17] = system: 201T
In short: as §1

[18] = system: NCI-H1975
In short: as §1

[19] = system: NCI-H1395
In short: as §1

[20] = system: EKVX
In short: as §1

[21] = system: NCI-H2126
In short: as §1

[22] = system: LU99A
In short: as §1

Clc1ccc(Nc2nnc(Cc3ccncc3)c3ccccc23)cc1 [Vatalanib] + CC1(C)CCC(c2ccc(Cl)cc2)=C(CN2CCN(c3ccc(C(=O)NS(=O)(=O)c4ccc(N[C@H](CCN5CCOCC5)CSc5ccccc5)c(S(=O)(=O)C(F)(F)F)c4)cc3)CC2)C1 [Navitoclax] (partner 0.5 µM)
relative viability ([1]; first compound 0.04 µM): 0.933 | relative viability ([1]; first compound 0.1265 µM): 0.916 | relative viability ([1]; first compound 0.4 µM): 0.93 | relative viability ([1]; first compound 1.265 µM): 0.915 | relative viability ([1]; first compound 4 µM): 0.919 | relative viability ([2]; first compound 0.04 µM): 0.725 | relative viability ([2]; first compound 0.1265 µM): 0.832 | relative viability ([2]; first compound 0.4 µM): 0.848 | relative viability ([2]; first compound 1.265 µM): 0.739 | relative viability ([2]; first compound 4 µM): 0.757 | relative viability ([3]; first compound 0.04 µM): 1.12 | relative viability ([3]; first compound 0.1265 µM): 1.25 | relative viability ([3]; first compound 0.4 µM): 1.29 | relative viability ([3]; first compound 1.265 µM): 1.05 | relative viability ([3]; first compound 4 µM): 1.01 | relative viability ([4]; first compound 0.04 µM): 0.938 | relative viability ([4]; first compound 0.1265 µM): 1.03 | relative viability ([4]; first compound 0.4 µM): 1.02 | relative viability ([4]; first compound 1.265 µM): 0.872 | relative viability ([4]; first compound 4 µM): 0.969 | relative viability ([5]; first compound 0.04 µM): 0.0773 | relative viability ([5]; first compound 0.1265 µM): 0.0662 | relative viability ([5]; first compound 0.4 µM): 0.0617 | relative viability ([5]; first compound 1.265 µM): 0.0622 | relative viability ([5]; first compound 4 µM): 0.0608 | relative viability ([6]; first compound 0.04 µM): 0.631 | relative viability ([6]; first compound 0.1265 µM): 0.511 | relative viability ([6]; first compound 0.4 µM): 0.488 | relative viability ([6]; first compound 1.265 µM): 0.401 | relative viability ([6]; first compound 4 µM): 0.38 | relative viability ([7]; first compound 0.04 µM): 1.08 | relative viability ([7]; first compound 0.1265 µM): 1.04 | relative viability ([7]; first compound 0.4 µM): 1.05 | relative viability ([7]; first compound 1.265 µM): 1.05 | relative viability ([7]; first compound 4 µM): 1.13 | relative viability ([8]; first compound 0.04 µM): 1.11 | relative viability ([8]; first compound 0.1265 µM): 1.09 | relative viability ([8]; first compound 0.4 µM): 1.07 | relative viability ([8]; first compound 1.265 µM): 0.994 | relative viability ([8]; first compound 4 µM): 0.964 | relative viability ([9]; first compound 0.04 µM): 0.608 | relative viability ([9]; first compound 0.1265 µM): 0.469 | relative viability ([9]; first compound 0.4 µM): 0.458 | relative viability ([9]; first compound 1.265 µM): 0.444 | relative viability ([9]; first compound 4 µM): 0.521 | relative viability ([10]; first compound 0.04 µM): 1.09 | relative viability ([10]; first compound 0.1265 µM): 1.09 | relative viability ([10]; first compound 0.4 µM): 1.12 | relative viability ([10]; first compound 1.265 µM): 1.13 | relative viability ([10]; first compound 4 µM): 1.15 | relative viability ([11]; first compound 0.04 µM): 1.08 | relative viability ([11]; first compound 0.1265 µM): 1.01 | relative viability ([11]; first compound 1.265 µM): 1.05 | relative viability ([11]; first compound 4 µM): 0.957 | relative viability ([12]; first compound 0.04 µM): 0.958 | relative viability ([12]; first compound 0.1265 µM): 0.93 | relative viability ([12]; first compound 0.4 µM): 0.829 | relative viability ([12]; first compound 1.265 µM): 0.963 | relative viability ([12]; first compound 4 µM): 0.845 | relative viability ([13]; first compound 0.04 µM): 0.703 | relative viability ([13]; first compound 0.1265 µM): 0.558 | relative viability ([13]; first compound 0.4 µM): 0.61 | relative viability ([13]; first compound 1.265 µM): 0.612 | relative viability ([13]; first compound 4 µM): 0.61 | relative viability ([14]; first compound 0.04 µM): 1.05 | relative viability ([14]; first compound 0.1265 µM): 0.958 | relative viability ([14]; first compound 0.4 µM): 1.07 | relative viability ([14]; first compound 1.265 µM): 0.949 | relative viability ([14]; first compound 4 µM): 1.07 | relative viability ([15]; first compound 0.04 µM): 1.01 | relative viability ([15]; first compound 0.1265 µM): 0.982 | relative viability ([15]; first compound 0.4 µM): 1.06 | relative viability ([15]; first compound 1.265 µM): 0.994 | relative viability ([15]; first compound 4 µM): 0.97 | relative viability ([16]; first compound 0.04 µM): 1.47 | relative viability ([16]; first compound 0.1265 µM): 0.928 | relative viability ([16]; first compound 0.4 µM): 0.692 | relative viability ([16]; first compound 1.265 µM): 0.766 | relative viability ([16]; first compound 4 µM): 0.715 | relative viability ([17]; first compound 0.04 µM): 1.17 | relative viability ([17]; first compound 0.1265 µM): 1.27 | relative viability ([17]; first compound 0.4 µM): 1.25 | relative viability ([17]; first compound 1.265 µM): 1.25 | relative viability ([17]; first compound 4 µM): 1.21 | relative viability ([18]; first compound 0.04 µM): 1.09 | relative viability ([18]; first compound 0.1265 µM): 1 | relative viability ([18]; first compound 0.4 µM): 1.17 | relative viability ([18]; first compound 1.265 µM): 0.945 | relative viability ([18]; first compound 4 µM): 0.815 | relative viability ([19]; first compound 0.04 µM): 1.17 | relative viability ([19]; first compound 0.1265 µM): 1.07 | relative viability ([19]; first compound 0.4 µM): 1.37 | relative viability ([19]; first compound 1.265 µM): 1.07 | relative viability ([19]; first compound 4 µM): 1.08 | relative viability ([20]; first compound 0.04 µM): 0.924 | relative viability ([20]; first compound 0.1265 µM): 0.928 | relative viability ([20]; first compound 0.4 µM): 1 | relative viability ([20]; first compound 1.265 µM): 0.839 | relative viability ([20]; first compound 4 µM): 0.891 | relative viability ([21]; first compound 0.04 µM): 0.834 | relative viability ([21]; first compound 0.1265 µM): 0.914 | relative viability ([21]; first compound 0.4 µM): 0.851 | relative viability ([21]; first compound 1.265 µM): 0.801 | relative viability ([21]; first compound 4 µM): 0.76 | relative viability ([22]; first compound 0.04 µM): 0.763 | relative viability ([22]; first compound 0.1265 µM): 0.719 | relative viability ([22]; first compound 0.4 µM): 1.11 | relative viability ([22]; first compound 1.265 µM): 0.855 | relative viability ([22]; first compound 4 µM): 0.859
